Experimental data from paper PMC6678097, “Machilin A Inhibits Tumor Growth and Macrophage M2 Polarization Through the Reduction of Lactic Acid” (Cancers, 2019).

What was measured:
LDHB = LDHB (Homo sapiens, UniProt P07195); experiment: LDHB activity (data not shown); type: biochemical; details: concentrations of up to 500 μM
HCC-95 = experiment: Lactate production assay; type: cell-based, human; details: normoxic
Experimental: (§1) Cellular lactate production was measured using a lactate fluorometric assay kit (Biovision, Milpitas, CA, USA) as described previously. Phenol red-free DMEM medium without FBS was added to a six-well plate containing subconfluent cells which were then incubated for 1 h at 37 °C. After incubation, the medium of each well was tested using a lactate assay kit (Biovision, Milpitas, CA, USA).

NCI-H1793 = experiment: Lactate production assay; type: cell-based, human; details: normoxic
Experimental: as §1

WiDr = experiment: Lactate production assay; type: cell-based, human; details: normoxic
Experimental: as §1

R.K.O = experiment: Lactate production assay; type: cell-based, human; details: normoxic
Experimental: as §1

DLD-1 = experiment: Lactate production assay; type: cell-based, human; details: normoxic
Experimental: as §1

HepG2 = experiment: Lactate production assay; type: cell-based, human; details: normoxic
Experimental: as §1

HT29 = experiment: Lactate production assay; type: cell-based, human; details: for Lactate (production): normoxic
Experimental: as §1

Huh7 = experiment: Lactate production assay; type: cell-based, human; details: normoxic
Experimental: as §1

MCF7 = experiment: Lactate production assay; type: cell-based, human; details: normoxic
Experimental: as §1

Hep3B = experiment: Lactate production assay; type: cell-based, human; details: normoxic
Experimental: as §1

HT29 colon cancer cells = experiment: Colony formation assay; type: cell-based, human; details: three weeks
Experimental: (§2) Base agar (0.6%) was placed at the bottom of the 6-well culture plate. After 30 min at room temperature, top agar (0.4%) mixed with HT29 (1 × 10^4 cells) or Hep3B (1 × 10^4 cells) cells was added to the base agar. HT29 and Hep3B cells were incubated at 37 °C and 5% CO2 for three weeks. The colonies were stained using 0.005% crystal violet for 1 h after which they were photographed and counted.

Hep3B liver cancer cells = experiment: Colony formation assay; type: cell-based, human; details: three weeks
Experimental: as §2

LDHA = experiment: LDH activity and LDHA expression in LLC tumor tissue lysates; type: in vivo, mice
Experimental: A purification of recombinant LDHA was performed as described previously. LDH activity was determined by measuring the decrease of absorbance at 340 nm due to the oxidation of NADH in 20 mM HEPES-K^+, 0.05% bovine serum albumin (BSA), 20 μM NADH, and 2 mM pyruvate (Sigma-Aldrich, St. Louis, MO, USA) at a pH of 7.2 using a spectrofluorometer (Spectramax M2, Molecular Devices, San Jose, CA, USA; excitation 340 nm; emission 460 nm), as described previously. Ten nanograms of recombinant LDHA protein were used in the in vitro LDH activity assay. One microgram of total protein from cell or tissue lysates was used for intracellular or in vivo LDH assays.
LLC and CT26 cells were suspended separately in PBS (5 × 10^5 cells/100 µL PBS) and inoculated in subcutaneously on the back of 7-week-old C57BL/6 mice and BALB/c mice respectively (Orient Bio Inc., Seongnam, Korea; n = 7). One day after the inoculation with tumor cells, mice of the control group (n = 7) were intraperitoneally administrated 100 µL of PBS per day for 18 days. Each of the MA-treated mice were intraperitoneally administrated 0.02, 0.2, or 1 mg MA, respectively, in 100 µL PBS per 20 g body weight, each day for 18 days. […] Length (l) and width (w) of each tumor were measured using a caliper, and the respective volume (V) was calculated according to the formula V = [(l × w^2)/2]. […]

[1] = tested on: HT29 colorectal cancer cells; experiment: Measurement of intracellular ATP; type: cell-based, human; details: machilin A 30 μM, hypoxia
Experimental: Intracellular ATP concentration was measured using an ATP bioluminescent somatic cell assay kit (Sigma-Aldrich) as previously described. A total of 1 × 10^6 cells were trypsinized and resuspended in ultrapure water. Luminescence was measured using a spectrofluometer (Spectramax M2, Molecular Devices, CA, USA) immediately after the addition of an ATP enzyme mix to the cell suspension.

CT26 tumors = experiment: Tumor allograft model, CT26 cells; type: in vivo, BALB/c mice; details: 1, 10, or 50 µg/g body weight intraperitoneally daily
Experimental: LLC and CT26 cells were suspended separately in PBS (5 × 10^5 cells/100 µL PBS) and inoculated in subcutaneously on the back of 7-week-old C57BL/6 mice and BALB/c mice respectively (Orient Bio Inc., Seongnam, Korea; n = 7). One day after the inoculation with tumor cells, mice of the control group (n = 7) were intraperitoneally administrated 100 µL of PBS per day for 18 days. Each of the MA-treated mice were intraperitoneally administrated 0.02, 0.2, or 1 mg MA, respectively, in 100 µL PBS per 20 g body weight, each day for 18 days. All mice were euthanized 19 days after inoculation with the tumor cells, and the tumors were excised and weighed. Length (l) and width (w) of each tumor were measured using a caliper, and the respective volume (V) was calculated according to the formula V = [(l × w^2)/2]. Tumors were immediately removed from euthanized mice and prepared for histological examinations. To test liver and kidney toxicity of MA, at the end of the in vivo allograft experiment blood was collected from each mouse and serum was separated. Biochemical analyses of aspartate aminotransferase (AST), alanine aminotransferase (ALT), creatinine, and blood urea nitrogen (BUN) were performed using a commercial service (Green Cross Co., Yongin, Korea). […]

[2] = target: T1, purified recombinant human LDHA (rhLDHA) (Homo sapiens, UniProt P00338); experiment: NADH binding assay (LDHA binding to Cibacron Blue 3GA agarose); details: machilin A 10 and 100 μM; NADH positive control
T1 construct: made in house
Experimental: An NADH binding assay was performed as described previously. The NADH binding ability of LDHA was determined by measuring the affinity of LDHA to agarose-immobilized Cibacron Blue 3GA, which resembles NADH. Then, 400 ng of purified recombinant human LDHA (rhLDHA) was incubated with NADH or MA, followed by incubation with 30 µL of Cibacron Blue agarose at 4 °C for 2 h. After a washing step with 20 mM Tris-HCl (pH 8.6), LDHA bound to beads was eluted in PBS using a sodium dodecyl sulfate (SDS) gel running buffer and was then subjected to–SDS-polyacrylamide gel electrophoresis (SDS-PAGE) and western blotting. Standardized amounts of protein were used in each reaction.

LDHB, sequence (P07195 whole entry, species assumed): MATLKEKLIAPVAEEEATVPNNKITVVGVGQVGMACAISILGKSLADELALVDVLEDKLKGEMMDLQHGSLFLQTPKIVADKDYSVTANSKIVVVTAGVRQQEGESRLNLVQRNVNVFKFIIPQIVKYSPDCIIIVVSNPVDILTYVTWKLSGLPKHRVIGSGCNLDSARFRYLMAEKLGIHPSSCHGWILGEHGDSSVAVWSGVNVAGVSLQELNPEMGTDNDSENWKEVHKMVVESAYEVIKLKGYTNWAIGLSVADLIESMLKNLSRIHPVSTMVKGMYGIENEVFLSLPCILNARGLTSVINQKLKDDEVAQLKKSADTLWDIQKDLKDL

C[C@H](Cc1ccc2c(c1)OCO2)[C@@H](C)Cc1ccc2c(c1)OCO2 [MA, bis(3,4-methylenedioxy)-8,8’-lignan]
effect on LDHB activity (LDHB): did not affect LDHB activity
Lactate (production) (HCC-95; MA 10 µM): 2250 ± 160 µM
Lactate (production) (HCC-95; MA 50 µM): 1760 ± 100 µM
Lactate (production) (NCI-H1793; MA 10 µM): 2360 ± 260 µM
Lactate (production) (NCI-H1793; MA 50 µM): 2040 ± 380 µM
Lactate (production) (WiDr; MA 10 µM): 3220 ± 50 µM
Lactate (production) (WiDr; MA 50 µM): 2700 ± 60 µM
Lactate (production) (R.K.O; MA 10 µM): 2760 ± 60 µM
Lactate (production) (R.K.O; MA 50 µM): 2480 ± 60 µM
Lactate (production) (DLD-1; MA 10 µM): 3680 ± 90 µM
Lactate (production) (DLD-1; MA 50 µM): 2940 ± 170 µM
Lactate (production) (HepG2; MA 10 µM): 510 ± 60 µM
Lactate (production) (HepG2; MA 50 µM): 470 ± 70 µM
Lactate (production) (HT29; MA 10 µM): 3420 ± 370 µM
Lactate (production) (HT29; MA 50 µM): 2730 ± 40 µM
increase of lactate production in hypoxic condition (HT29; machilin A 30 μM, hypoxia): significantly reduced
Lactate (production) (Huh7; MA 10 µM): 1140 ± 320 µM
Lactate (production) (Huh7; MA 50 µM): 670 ± 150 µM
Lactate (production) (MCF7; MA 10 µM): 1070 ± 150 µM
Lactate (production) (MCF7; MA 50 µM): 770 ± 190 µM
Lactate (production) (Hep3B; MA 10 µM): 1120 ± 40 µM
Lactate (production) (Hep3B; MA 50 µM): 730 ± 10 µM
number of surviving colonies (HT29 colon cancer cells): significantly reduced
number of surviving colonies (Hep3B liver cancer cells): significantly reduced
activity of LDH in LLC cell allografts (LDHA; tumor tissue lysates): clearly inhibited
expression of LDHA in LLC cell allografts (LDHA; western blot of tumor tissue): did not affect
increase of adenosine triphosphate (ATP) synthesis in hypoxic condition [1]: significantly reduced
volume, weight, and size of tumors (CT26 tumors): significantly reduced
LDHA binding to Cibacron Blue Agarose beads (NADH mimic) [2]: prohibited LDHA binding
